Test results as given in publication PMC12027554, “Inhibition of ABCG2 by SCO-101 Enhances Chemotherapy Efficacy in Cancer” (International Journal of Molecular Sciences, 2025).

How the values were obtained:
HT29PAR cells = assay: Cellular dye efflux assay (Hoechst 33342), parental cells; type: cell-based, human; conditions: SCO-101 20 µM, Ko-143 1 µM
Method: Twenty-four hours before the experiments, cells were seeded into 96-well Nunclon^TM plates at a density of 6000 (HT29), 7000 (PANC-1) or 8000 (LoVo) cells/well. The following day, cells were treated in triplicate with the relevant drugs at the indicated concentrations for 1 h. Next, 5 μg/mL Hoechst 33342 was added to the wells, and plates incubated at 37 °C for 30 min^−1 h. Cells were washed with cold PBS, treatments re-added and plates re-incubated at 37 °C for 30 min to 1 h. Plates were analyzed using a Celigo® (Nexcelom Bioscience, Lawrence, MA, USA) imaging cytometer. Data are expressed as percentages of fluorescence intensity, calculated through the following formula: % fluorescence intensity=Mean fluorescence intensity of sample/Mean fluorescence intensity of parental control×100
Fluorescent images were captured with an Olympus® IX71/TH4-200 microscope equipped with an Olympus® DP72 camera (Shinjuku, Tokyo, Japan), and cells were seeded at a 1.5 × 10^5 cells/well density and treated as described above.

MDR1/ABCB1 = MDR1/ABCB1 (Homo sapiens, UniProt P08183); assay: Efflux transporter inhibition, vesicular uptake into inside-out membrane vesicles (ABCB1); type: biochemical; conditions: 1 μM N-methyl-quinidine
Sequence of MDR1/ABCB1 (P08183 whole entry): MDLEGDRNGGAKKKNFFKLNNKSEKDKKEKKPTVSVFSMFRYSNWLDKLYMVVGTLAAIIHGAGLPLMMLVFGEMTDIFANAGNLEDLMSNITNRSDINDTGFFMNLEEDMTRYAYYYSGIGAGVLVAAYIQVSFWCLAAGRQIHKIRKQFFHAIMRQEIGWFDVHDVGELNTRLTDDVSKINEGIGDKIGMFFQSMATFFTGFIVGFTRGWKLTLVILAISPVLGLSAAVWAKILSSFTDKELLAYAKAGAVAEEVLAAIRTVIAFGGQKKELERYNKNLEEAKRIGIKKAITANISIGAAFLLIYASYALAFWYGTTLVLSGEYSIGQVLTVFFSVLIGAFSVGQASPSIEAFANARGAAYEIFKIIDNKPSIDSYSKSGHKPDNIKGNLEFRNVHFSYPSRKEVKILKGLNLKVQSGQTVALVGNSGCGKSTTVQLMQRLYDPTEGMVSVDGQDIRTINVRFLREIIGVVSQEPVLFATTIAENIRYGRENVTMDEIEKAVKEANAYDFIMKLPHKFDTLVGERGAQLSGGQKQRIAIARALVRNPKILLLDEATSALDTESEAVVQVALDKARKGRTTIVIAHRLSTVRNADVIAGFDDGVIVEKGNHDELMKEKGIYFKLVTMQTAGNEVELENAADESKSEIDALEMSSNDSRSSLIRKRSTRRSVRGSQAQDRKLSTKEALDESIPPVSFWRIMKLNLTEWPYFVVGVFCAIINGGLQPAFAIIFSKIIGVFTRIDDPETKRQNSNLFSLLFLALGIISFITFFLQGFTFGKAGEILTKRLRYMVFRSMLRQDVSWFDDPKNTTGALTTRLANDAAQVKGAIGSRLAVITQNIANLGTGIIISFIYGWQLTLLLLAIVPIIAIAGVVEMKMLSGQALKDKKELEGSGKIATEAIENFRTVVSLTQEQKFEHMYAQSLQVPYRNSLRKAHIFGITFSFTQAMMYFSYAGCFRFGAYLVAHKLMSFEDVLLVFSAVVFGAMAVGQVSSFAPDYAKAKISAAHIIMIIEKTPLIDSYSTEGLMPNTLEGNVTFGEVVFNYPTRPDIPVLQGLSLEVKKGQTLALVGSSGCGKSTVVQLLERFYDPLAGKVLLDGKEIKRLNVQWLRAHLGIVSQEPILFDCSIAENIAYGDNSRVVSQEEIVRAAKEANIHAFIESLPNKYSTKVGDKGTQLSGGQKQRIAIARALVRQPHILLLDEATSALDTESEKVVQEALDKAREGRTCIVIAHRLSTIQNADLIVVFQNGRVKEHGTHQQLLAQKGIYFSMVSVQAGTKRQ
Method: Efflux transporter inhibition was evaluated by measuring vesicular uptake into inside-out membrane vesicles (SOLVO biotechnology, Budapest, Hungary) expressing a single human ABC transporter (0.67 mg/mL ABCB1; 0.67 mg/mL ABCC2; 0.33 mg/mL ABCG2 membrane protein) of a probe substrate (1 μM N-methyl-quinidine for ABCB1; 100 μM 5(6)-carboxy-2′,7′-dichlorofluorescein for ABCC2; 1 μM Eestrone-3-sulfate for ABCG2) in the presence of SCO-101 with and without ATP (4 mM) in 96-well plate format. Control solvent and control inhibitors (4–60 μM verapamil for […]; 1–15 μM sulfasalazine for ABCG2; 5.5–150 μM benzbromarone for ABCC2) were incubated in parallel. Vesicular uptake was conducted at 37 °C in incubation buffer (10 mM Tris-HCl, pH 7.4, 10 mM MgCl2, 250 mM sucrose) and terminated after 1 min (ABCB1 and ABCG2) or 5 min (ABCC2) by adding ice-cold washing buffer (10 mM Tris-HCl, pH 7.4, 100 mM NaCl, 250 mM sucrose). […] Probe quantification was conducted using LC-MS/MS peak areas (solvent control with ATP − AMP = 100%). […] The remaining transporter activity % was calculated according to the formula below, and fitting was performed using GraphPad Prism: A%=AATP,sample−AAMP,sample/AATP,solvent−AAMP,solvent

[1] = target: other members of the UGT family; assay: Inhibition of glucuronidation activity of other UGT family enzymes; type: biochemical; conditions: Figure S3F
HT29SN-38 cells = assay: 3H-SN-38 uptake in cell monolayers; type: cell-based, human; conditions: HT29SN-38 monolayers
Method: Cells were seeded at a density of 1.8 × 10^4 cells/well in 96-well plates and sub-cultured for 48 h. Drugs were dissolved in HBSS transport buffer (HBSS, 0.05% BSA, 10 mM HEPES, pH 7.4) at different concentrations. All treatments were investigated in technical triplicates. On the day of the experiments, the culture medium was exchanged with 100 μL transport buffer and cells incubated for 15 min at 37 °C. Next, the blank transport buffer was exchanged with 50 μL transport buffer containing the different compounds (2X of final concentrations) and incubated for an additional 15 min at 37 °C. The uptake experiment was started by adding 50 μL of 2 μCi/mL ^3H-SN38 and stopped after 15 min of incubation at 37 °C by removing the transport buffer from all wells. Cell monolayers were washed twice by adding/removing ice-cold transport buffer and lysed for 15 min at RT in 100 μL 0.1% TritonX-100. Cell lysates were transferred to scintillation vials containing 2 mL of scintillation fluid (Ultima Gold, PerkinElmer). Each well was washed with 100 μL purified water (milliQ), which was also transferred to respective scintillation vials. The radioactivity in each scintillation vial was measured by means of scintillation counting (Tri-Carb 2910 TR, PerkinElmer, Waltham, MA, USA).

MKN45 cells = assay: Cell viability assay (CellTiter-Glo), MKN45; type: cell-based; conditions: Homo sapiens, MKN-45, 96 h
Method: Cells were seeded at a density of 0.2–1 × 10^4 cells/well into 96-well plates. One day after seeding, treatments were performed in triplicate for 72 h, or as otherwise indicated in the relevant panel/figure legend and kept at 37 °C/5% CO2. Growth medium alone (“untreated” cells) or DMSO was used as a control.
For SCH, SNU-5, and MKN45 cells, 50 μL of CellTiter-Glo® Reagent (Promega; Madison, WI, USA) was added to each well at the end of the treatments. The content was mixed for 5 min to facilitate cell lysis and plates incubated at room temperature for 10 min to stabilize luminescent signals, which were then recorded using an EnVision Multi Label Reader (PerkinElmer; Waltham, MA, USA).
Background values were subtracted prior to further analysis. The percentage of cell viability was expressed as relative values versus untreated cells as determined by the various assays. EC50/IC50 values were calculated using GraphPad Prism (v10.4.1) and the in-built non-linear regression [log (inhibitor) vs. response—variable slope (four parameters)] calculation. […] Synergy scores were calculated using the ZIP model, which takes the advantages of both the Loewe additivity and the Bliss independence models, aiming at a systematic assessment of various types of drug interaction patterns that may arise in a high-throughput drug combination screening.

[2] = set-up: method as in earlier work; conditions: oral SCO-101 in combination with FOLFIRI; cited from earlier work

IC50 (MDR1/ABCB1): 16.1 µM
IC50 for other members of the UGT family compared with UGT1A1 [1]: higher IC50 values
EC50 (HT29SN-38 cells; Homo sapiens, read-out: EC50, 3H-SN-38 uptake (regarded as IC50 of ABCG2 inhibition)): 6.4 µM
IC50 (MKN45 cells): > 50 µM
Structure (SMILES): O=C(Nc1cc(C(F)(F)F)cc(C(F)(F)F)c1)Nc1ccc(Br)cc1-c1nnn[nH]1 [SCO-101, N-[4-Bromo-2-(1H-1,2,3,4-tetrazol-5-yl)phenyl]-N′-[3,5-bis(trifluoromethyl)phenyl]urea]
H33342 dye accumulation (HT29PAR cells): No change
cellular accumulation of 3H-SN-38 (HT29SN-38 cells; SCO-101 25 µM, Ko-143 0.5 µM, ZSQ 0.5 µM, vs control (HBSS)): greater than those of Ko-143-treated cells
safety [2]: safe
